One assay has as its system Rat Paw Edema. The experiment in a line: Rat paw edema assay (carrageenan). Type of assay: in vivo. The conditions noted are these: male Sprague-Dawley rats, po 1 hr before carrageenan, paw volume 3 hr later; for ED50: Rattus norvegicus. On the procedure: Male Sprague-Dawley rats (150-200 g) are fasted overnight and are given, po, either vehicle (1% methocel or 5% Tween 80) or a test compound. One hr later, a line is drawn using a permanent marker at the level above the ankle in one hind paw to define the area of the paw to be monitored. The paw volume (V0) is measured using a plethysmometer (Ugo-Basile, Italy) based on the principle of water displacement. The animals are then injected subplantarly with 50 µl of 1% carrageenan solution in saline (FMC Corp, Maine) into the paw using an insulin syringe with a 25-gauge needle (i.e. 500 µg carrageenan per paw). Three hr later, the paw volume (V3) is measured and the increases in paw volume (V3 - VO) are calculated. The animals are sacrificed by CO2 asphyxiation and the absence or presence of stomach lesions scored. Data is compared with the vehicle-control values and percent inhibition calculated. All treatment groups are coded to eliminate observer bias.

The target of another assay is T1, COX-1 (Homo sapiens, UniProt P23219).
T1 construct: endogenous in cells; host or cells: U937 (human) cells; 100,000 x g microsomal fraction
T1 sequence (P23219 24-599): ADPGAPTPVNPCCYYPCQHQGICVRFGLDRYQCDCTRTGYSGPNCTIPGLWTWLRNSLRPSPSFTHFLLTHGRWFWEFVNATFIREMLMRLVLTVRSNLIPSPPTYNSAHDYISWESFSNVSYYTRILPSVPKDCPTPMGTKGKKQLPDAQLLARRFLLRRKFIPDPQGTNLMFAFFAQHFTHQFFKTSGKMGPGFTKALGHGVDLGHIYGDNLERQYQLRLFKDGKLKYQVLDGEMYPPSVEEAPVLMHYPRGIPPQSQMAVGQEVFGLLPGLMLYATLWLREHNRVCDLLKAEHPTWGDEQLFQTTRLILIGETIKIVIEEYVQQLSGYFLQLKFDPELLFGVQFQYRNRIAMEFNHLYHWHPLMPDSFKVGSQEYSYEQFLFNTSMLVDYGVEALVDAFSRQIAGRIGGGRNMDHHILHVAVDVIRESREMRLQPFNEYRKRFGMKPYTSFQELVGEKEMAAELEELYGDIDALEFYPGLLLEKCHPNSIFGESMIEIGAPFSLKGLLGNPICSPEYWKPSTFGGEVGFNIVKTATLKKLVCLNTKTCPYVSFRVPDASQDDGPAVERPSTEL
Description: Assay of COX-1 activity from U937 cell microsomes. Type of assay: biochemical. The conditions noted are these: U937 cells, PGE2 synthesis in presence of AA. The method, then:
Compounds are tested as inhibitors of cyclooxygenase activity in whole cell cyclooxygenase assays. […] Cells used for these assays are human osteosarcoma 143 cells (which specifically express COX-2) and human U-937 cells (which specifically express COX-1). […] U 937 cells are pelleted by centrifugation at 500 x g for 5 min and washed once with phosphate-buffered saline and repelleted. Cells are resuspended in homogenization buffer consisting of 0.1 M Tris-HCl, pH 7.4, 10 mM EDTA, 2 µg/ml leupeptin, 2 µg/ml soybean trypsin inhibitor, 2 µg/ml aprotinin and 1 mM phenyl methyl sulfonyl fluoride. […] Assays are performed in duplicate in a final volume of 250 µl. Initially, 5 µl of DMSO vehicle or drug in DMSO are added to 20 µl of 0.1 M Tris-HCl buffer, pH 7.4 containing 10 mM EDTA in wells of a 96-deepwell polypropylene titre plate. 200 µl of the microsomal preparation are then added and pre-incubated for 15 min at room temperature before addition of 25 µl of […] arachidonic acid in […] Tris-HCl and 10 mM EDTA, pH 7.4. Samples are incubated for 40 min at room temperature and the reaction is stopped by the addition of 25 µl of 1 N HCl. Samples are neutralized with 25 µl of 1 N NaOH prior to quantitation of PGE2 content by radioimmunoassay (Dupont-NEN or Amersham assay kits). […]

The next assay has as its target T2, COX-2 (Homo sapiens, UniProt P35354).
T2 sequence (P35354 18-604): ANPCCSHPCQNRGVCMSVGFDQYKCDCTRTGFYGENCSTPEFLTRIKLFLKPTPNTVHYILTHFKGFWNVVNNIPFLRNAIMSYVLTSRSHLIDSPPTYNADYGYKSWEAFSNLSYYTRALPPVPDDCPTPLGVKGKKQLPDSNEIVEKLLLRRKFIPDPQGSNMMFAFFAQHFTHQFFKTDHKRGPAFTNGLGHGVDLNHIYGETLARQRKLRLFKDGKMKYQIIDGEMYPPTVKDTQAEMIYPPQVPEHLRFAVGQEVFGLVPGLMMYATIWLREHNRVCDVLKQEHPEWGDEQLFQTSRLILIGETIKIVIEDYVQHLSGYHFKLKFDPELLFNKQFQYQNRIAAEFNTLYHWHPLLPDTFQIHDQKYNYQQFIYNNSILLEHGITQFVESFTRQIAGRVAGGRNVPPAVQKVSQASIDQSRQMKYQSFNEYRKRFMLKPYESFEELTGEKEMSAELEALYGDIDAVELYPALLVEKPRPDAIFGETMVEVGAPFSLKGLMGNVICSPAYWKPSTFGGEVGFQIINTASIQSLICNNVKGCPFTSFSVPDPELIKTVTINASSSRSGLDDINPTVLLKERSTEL
Description: Human whole blood assay, COX-2 (LPS-induced PGE2 production). Type of assay: cell-based. The conditions noted are these: Cox-1 U937 IC50 divided by Cox-2 Whole Blood IC50. From the text: As well, platelets in whole blood contain a large amount of the COX-1 enzyme. Immediately following blood clotting, platelets are activated through a thrombin-mediated mechanism. […] Thus, the effect of test compounds on TxB2 levels following blood clotting can be examined and used as an index for COX-1 activity. Therefore, the degree of selectivity by the test compound can be determined by measuring the levels of PGE2 after LPS induction (COX-2) and TxB2 following blood clotting (COX-1) in the same assay. Fresh blood is collected in heparinized tubes by venipuncture from both male and female volunteers. The subjects have no apparent inflammatory conditions and have not taken any NSAIDs for at least 7 days prior to blood collection. […] At the end of the incubation, the blood is centrifuged at 12,000 x g for 5 minutes to obtain plasma. A 100µL aliquot of plasma is mixed with 400µL of methanol for protein precipitation. The supernatant is obtained and is assayed for PGE2 using a radioimmunoassay kit (Amersham, RPA#530) after conversion of PGE2 to its methyl oximate derivative according to the manufacturer's procedure.

Bounds are passed on as bounds.

As to `CS(=O)(=O)c1ccc(-c2cccnc2-c2ccccc2)cc1` [Aa, reference compound], in the assay with Rat Paw Edema, the “Rat Paw Edema (ED50, mg/kg)” value was greater than 10 mg/kg. The IC50 on COX-1 is greater than 10 µM.

As to `CS(=O)(=O)c1ccc(-c2cccnc2-c2ccc(F)cc2)cc1` [Ab, reference compound], the “Selectivity Ratio” value at COX-2 stood at 0.45.

With `CS(=O)(=O)c1ccc(-c2cc(C(F)(F)F)cnc2-c2cccnc2)cc1` [Example 7, 3-(4-Methylsulfonyl)phenyl-2-(3-pyridinyl)-5-trifluoromethylpyridine], in the assay with Rat Paw Edema, the ED50 stood at 1.7 mg/kg.

In turn, `Cc1ccc(-c2ncc(Cl)cc2-c2ccc(S(C)(=O)=O)cc2)cn1` [Example 23, 5-Chloro-3-(4-methylsulfonyl)phenyl-2-(2-methyl-5-pyridinyl)pyridine] showed an ED50 in the assay with Rat Paw Edema of 0.6 mg/kg.

For the molecule `CS(=O)(=O)c1ccc(-c2cc(Br)cnc2-c2cccnc2)cc1` [Example 32], the “Selectivity Ratio” value at COX-2 is listed as greater than 8.3.

These data come from EP0912518B1, “SUBSTITUTED PYRIDINES AS SELECTIVE CYCLOOXYGENASE-2 INHIBITORS” (Merck Frosst Canada & Co., priority 1996, dated 1998).
